Test results from patent US6642392B1 (priority 1997, dated 2003).
Like-named read-outs stand apart in the source and are kept apart here.

Key:
Type in all cases: in vivo
[1] = tested on: Eiysiphe graminis f. sp. tritici; experiment: Test A: wheat powdery mildew, preventive spray on wheat seedlings; conditions: for Test A disease control rating (100 = 100% disease control, 0 = no disease control): wheat seedlings sprayed to run-off, inoculated the following day, rating relative to controls, unmarked compounds (standard test rate); for Test A disease control rating: wheat powdery mildew
Experimental: (§1) The resulting test suspensions were then used in the following tests. […]
The test suspension was sprayed to the point of run-off on wheat seedlings. The following day the seedlings were inoculated with a spore dust of Eiysiphe graminis f. sp. tritici, (the causal agent of wheat powdery mildew) and incubated in a growth chamber at 20° C. for 7 days, after which disease ratings were made.
(§2) Results for Tests A-E are given in Table A. In the table, a rating of 100 indicates 100% disease control and a rating of 0 indicates no disease control (relative to the controls). A dash (-) indicates no test results. ND indicates disease control not determined due to phytotoxicity.

[2] = tested on: Puccinia recondita; experiment: Test B: wheat leaf rust, preventive spray on wheat seedlings; conditions: for Test B disease control rating (100 = 100% disease control, 0 = no disease control): wheat seedlings sprayed to run-off, inoculated the following day, rating relative to controls, unmarked compounds (standard test rate); for Test B disease control rating: wheat leaf rust
Experimental: as §1
(§3) The test suspension was sprayed to the point of run-off on wheat seedlings. The following day the seedlings were inoculated with a spore suspension of Puccinia recondita (the causal agent of wheat leaf rust) and incubated in a saturated atmosphere at 20° C. for 24 h, and then moved to a growth chamber at 20° C. for 6 days, after which disease ratings were made.
as §2

[3] = tested on: Pyricularia oryzae; conditions: for Test C disease control rating (100 = 100% disease control, 0 = no disease control): rice seedlings sprayed to run-off, inoculated the following day, rating relative to controls, unmarked compounds (standard test rate); for Test C disease control rating: rice blast
[4] = tested on: Phytophthora infestans; conditions: for Test D disease control rating (100 = 100% disease control, 0 = no disease control): tomato seedlings sprayed to run-off, inoculated the following day, rating relative to controls, unmarked compounds (standard test rate); for Test D disease control rating: tomato late blight
[5] = tested on: Botrytis cinerea; experiment: Test E: gray mold, preventive spray on cucumber seedlings; conditions: for Test E disease control rating (100 = 100% disease control, 0 = no disease control): cucumber seedlings sprayed to run-off, inoculated the following day, rating relative to controls, unmarked compounds (standard test rate); for Test E disease control rating: gray mold on cucumber
Experimental: The resulting test suspensions were then used in the following tests. Spraying these 200 ppm test suspensions to the point of run-off on the test plants is the equivalent of a rate of 500 g/ha.
as §3, with “cucumber” for “wheat”, “Botrytis cinerea” for “Puccinia recondita”, “gray mold on many crops)” for “wheat leaf rust)”, “48” for “24”, “and” for “and then”, “5” for “6”
as §2

[6] = 100 = 100% disease control, 0 = no control relative to controls, unmarked entries (standard test concentration)
[7] = 100 = 100% disease control, 0 = no control, unmarked entries (standard test concentration)

SMILES | Test A disease control rating [1, 6] | Test B disease control rating [2, 7] | Test C disease control rating [3, 7] | Test D disease control rating [4, 7] | Test E disease control rating [5, 7] | other results
CCC1(C(=O)NCC(C)=Cc2cc(Cl)ccc2Cl)C(C)C1(Cl)Cl (centres unmarked) [compound 270] |  |  |  |  |  | Test A disease control rating (100 = 100% disease control, 0 = no disease control) [1]: 77%; Test B disease control rating (100 = 100% disease control, 0 = no disease control) [2]: 0%; Test C disease control rating (100 = 100% disease control, 0 = no disease control) [3]: 91%; Test D disease control rating (100 = 100% disease control, 0 = no disease control) [4]: 96%; Test E disease control rating (100 = 100% disease control, 0 = no disease control) [5]: 0%
CC(COc1ccc(Cl)cc1)NC(=O)C(C#N)C(C)(C)C (single isomer, unassigned) [7b] | 77% | 0% | 74% | 89% | 47% | 
CCC1(C(=O)NC(C)C=Cc2cc(F)ccc2F)C(C)C1(Cl)Cl (single isomer, unassigned) [267a] |  |  |  |  |  | Test A disease control rating (100 = 100% disease control, 0 = no disease control) [1]: 78%; Test B disease control rating (100 = 100% disease control, 0 = no disease control) [2]: 0%; Test C disease control rating (100 = 100% disease control, 0 = no disease control) [3]: 97%; Test D disease control rating (100 = 100% disease control, 0 = no disease control) [4]: 0%; Test E disease control rating (100 = 100% disease control, 0 = no disease control) [5]: 55%
CC(COc1ccccc1Cl)NC(=O)C(C#N)C(C)(C)C (mixture of isomers) [5b] | 0% | 86% | 100% | 24% | 0% | 
C=C(F)C(C)(C)C(C#N)C(=O)NC(C)COc1cc(F)ccc1Cl (mixture of isomers) [compound 223] |  |  |  |  |  | Test A disease control rating (100 = 100% disease control, 0 = no disease control) [1]: 62%; Test B disease control rating (100 = 100% disease control, 0 = no disease control) [2]: 28%; Test C disease control rating (100 = 100% disease control, 0 = no disease control) [3]: 100%; Test D disease control rating (100 = 100% disease control, 0 = no disease control) [4]: 41%; Test E disease control rating (100 = 100% disease control, 0 = no disease control) [5]: 0%
CCC1(C(=O)NC(C)COc2ccc(Br)cc2)C(C)C1(Cl)Cl (mixture of isomers) [86a] |  |  |  |  |  | Test A disease control rating ([1]; tested at 40 ppm): 0%; Test B disease control rating ([2]; tested at 40 ppm): 67%; Test C disease control rating ([3]; tested at 40 ppm): 0%; Test D disease control rating ([4]; tested at 40 ppm): 0%; Test E disease control rating ([5]; tested at 40 ppm): 0%
C=CC(C)(C)C(C#N)C(=O)N[C@H](C)COc1cc(Cl)ccc1Cl (single isomer, unassigned) [215b] |  |  |  |  |  | Test A disease control rating (100 = 100% disease control, 0 = no disease control) [1]: 0%; Test B disease control rating (100 = 100% disease control, 0 = no disease control) [2]: 28%; Test C disease control rating (100 = 100% disease control, 0 = no disease control) [3]: 99%; Test D disease control rating (100 = 100% disease control, 0 = no disease control) [4]: 76%; Test E disease control rating (100 = 100% disease control, 0 = no disease control) [5]: 83%
C[C@H](COc1cc(Cl)c(Cl)cc1Cl)NC(=O)C(C#N)C(C)(C)C (single isomer, unassigned) [174a] | 0% | 0% | 31% | 54% | 0% | 
CCC1(C(=O)NC(C)COc2cc(OC(F)F)ccc2C#N)C(C)C1(Cl)Cl (mixture of isomers) [compound 256] |  |  |  |  |  | Test A disease control rating (100 = 100% disease control, 0 = no disease control) [1]: 56%; Test B disease control rating (100 = 100% disease control, 0 = no disease control) [2]: 0%; Test C disease control rating (100 = 100% disease control, 0 = no disease control) [3]: 0%; Test D disease control rating (100 = 100% disease control, 0 = no disease control) [4]: 0%; Test E disease control rating (100 = 100% disease control, 0 = no disease control) [5]: 0%
CCC1(C(=O)NCC=Cc2ccc(F)cc2F)C(C)C1(Cl)Cl (centres unmarked) [compound 162] | 0% | 0% | 74% | 95% | 82% | 
CCc1ccccc1OCC(C)NC(=O)C1(CC)C(C)C1(Cl)Cl (centres unmarked) [97b] |  |  |  |  |  | Test A disease control rating ([1]; tested at 40 ppm): 71%; Test B disease control rating ([2]; tested at 40 ppm): 0%; Test C disease control rating ([3]; tested at 40 ppm): 53%; Test D disease control rating ([4]; tested at 40 ppm): 0%; Test E disease control rating ([5]; tested at 40 ppm): 0%
C[C@H](COc1ccccc1F)NC(=O)C(C#N)C(C)(C)C (single isomer, unassigned) [2b] | 0% | 0% | 100% | 0% | 0% | 
C[C@H](COc1ccc(Cl)cc1F)NC(=O)C(C#N)C(C)(C)C (single isomer, unassigned) [36a] | 0% | 27% | 99% | 89% | 0% | 
CC(COc1ccccc1)NC(=O)C(C#N)C(C)(C)C (single isomer, unassigned) [1b] | 34% | 11% | 74% | 0% | 0% | 
C[C@H](COc1cc(F)ccc1F)NC(=O)C(C#N)C(C)(C)C (single isomer, unassigned) [28b] | 86% | 28% | 100% | 96% | 0% | 
C[C@H](COc1cccc(I)c1)NC(=O)C(C#N)C(C)(C)C (single isomer, unassigned) [12b] | 77% | 0% | 94% | 68% | 0% | 
C[C@H](COc1cccc(I)c1)NC(=O)C(C#N)C(C)(C)C (single isomer, unassigned) [12a] | 86% | 68% | 91% | 0% | 0% | 
CCC1(C(=O)NCCCc2ccccc2)C(C)C1(Cl)Cl (centres unmarked) [compound 155] | 71% | 0% | 86% | 23% | 0% | 
CC(COc1cc(F)ccc1C#N)NC(=O)C(C#N)C(C)(C)C (mixture of isomers) [compound 41] | 62% | 0% | 97% | 66% | 47% | 
CCCC(C#N)C(=O)NC(C)C(Oc1cc(F)ccc1C#N)c1ccccc1 (mixture of isomers) [compound 287] |  |  |  |  |  | Test A disease control rating (100 = 100% disease control, 0 = no disease control) [1]: 0%; Test B disease control rating (100 = 100% disease control, 0 = no disease control) [2]: 0%; Test C disease control rating (100 = 100% disease control, 0 = no disease control) [3]: 97%; Test D disease control rating (100 = 100% disease control, 0 = no disease control) [4]: 23%; Test E disease control rating (100 = 100% disease control, 0 = no disease control) [5]: 0%
CC(C)(C)C(C#N)C(=O)NC/C=C/c1ccccc1 (racemic) [compound 167] | 0% | 0% | 74% | 23% | 0% | 
CC(CCn1cc(Cl)cc1C#N)NC(=O)C(C#N)C(C)(C)C (mixture of isomers) [compound 53] | 0% | 0% | 53% | 0% | 0% | 
C[C@H](COc1cccc(F)c1)NC(=O)C(C#N)C(C)(C)C (single isomer, unassigned) [3e] | 86% | 0% | 100% | 68% | 0% | 
CCC1(C(=O)NC(C)COc2ccc(Cl)c(Cl)c2)C(C)C1(Cl)Cl (centres unmarked) [compound 230] |  |  |  |  |  | Test A disease control rating (100 = 100% disease control, 0 = no disease control) [1]: 0%; Test B disease control rating (100 = 100% disease control, 0 = no disease control) [2]: 0%; Test C disease control rating (100 = 100% disease control, 0 = no disease control) [3]: 53%; Test D disease control rating (100 = 100% disease control, 0 = no disease control) [4]: 0%; Test E disease control rating (100 = 100% disease control, 0 = no disease control) [5]: 45%
Cc1c(Cl)cc(C#N)n1OCC(C)NC(=O)C(C#N)C(C)C(C)(C)C (mixture of isomers) [71b] |  |  |  |  |  | Test A disease control rating ([1]; tested at 100 ppm): 0%; Test B disease control rating ([2]; tested at 100 ppm): 0%; Test C disease control rating ([3]; tested at 100 ppm): 0%; Test D disease control rating ([4]; tested at 100 ppm): 19%; Test E disease control rating ([5]; tested at 100 ppm): 0%
